Columns and labels:
Format in all cases: biochemical
MYC = assay: In vitro transcription-translation (IVTT) assay, MYC reporter; conditions: HeLa S3 lysate, 2 hrs at 30° C.
Excerpt: (§1) All reporter constructs have been cloned into the pT7CFE1-CHis plasmid (ThermoFisher #88860) using Gibson assembly procedures (NEB #E2611L). The parental pT7CFE1-CHis plasmid contains an EMCV IRES at the 5′UTR for translation initiation, a multiple-cloning site (MCS) for gene insertion, an optional C-terminal His-epitope tag, and polyA sequence in the 3′UTR to regulate mRNA stability. All reporters are designed to be inserted at the MCS to include a red fluorescent protein (mCherry), P2A self-cleaving peptide which releases the preceding mCherry protein product, and a fusion open reading frame containing a 3×FLAG epitope, a peptide sequence of interest (TEST), and green fluorescent protein (sfGFP).
(§2) Construct Plasmid Preparation: All plasmids are isolated from MACH1 cells (ThermoFisher) grown overnight in ampicillin-containing luria broth, and purified using ZymoPure Express Plasmid Midiprep Kit (Zymo Research). Constructs are sequenced verified and diluted to a working concentration of 110 ng/μL.
(§3) HeLa S3 Lysate Preparation: HeLa S3 cell pellets are acquired from Ipracell/Ipratech (Belgium) and shipped as 4 mL frozen cell pellets on dry ice for storage at −80° C. until use. The procedure for lysate preparation is as follows. Prepare 1× Lysis Buffer, cold and stored on ice:
(§4) Each preparation takes 8 cell pellets (4 ml packed volume each, approximately 1.0×10^9 cells per pellet). Thaw cell pellets from −80° C. on ice for 90 mins. Lay pellets horizontally on top of the ice and rotate every 30 mins to ensure even thawing. Once thawed, add 4 mL of cold lysis buffer to each pellet, and using a serological pipet, gently pipet up and down to break up clumps. Incubate resuspended cells in ice for an additional 30 mins (plunged into ice). During 30 min incubation, rinse and RNase-zap (Ambion) glass dounces (use loose pestle “A”), gently dry and place on ice until needed. Prepare RNase-free Eppendorf tubes for spinning and for batch storage. Add batch labels to 1.5-1.7 mL RNase-free microcentrifuge tubes (labeling scheme below). Each batch will have an extra 1.5-1.7 mL RNase-free microcentrifuge tube for 40 μL of lysate, label the top of this tube (labeling scheme below). After 30 min incubation, transfer all 8 mL of cell pellet to dounce. Cell lysis is complete after douncing 100 times. Aliquot cell lysis into 1.5-1.7 mL temporary-microcentrifuge tubes. Place tubes in centrifuge with “fins” out, and spin at 1,200×g for 5 mins. After the first spin use a 1 mL pipet to resuspend each tube and repeat spin. This acts as an additional lysis step, is more vigorous and increases lysate yield. During second spin get liquid N2 and a fresh conical tube on ice. After spin is complete, transfer supernatant (lysate) from microcentrifuge tubes into the 50 mL conical tube and keep on ice. Repeat steps 10-14 for all other cell pellets until completed. Once all cell lysate has been transferred to the 50 mL conical tube pipet to mix so the solution is homogenous. Transfer 1 mL of lysate into batch-labeled microcentrifuge tubes and flash freeze in liquid nitrogen. Be sure to pipet up and down to mix throughout transfer step. Place all tubes in the […] for long-term storage.
(§5) In vitro transcription-translation assay setup: Each assay includes a master mix containing lysate and shared components, a 96-well plate containing compound titrations for testing, a 96-well DNA plate with reporter constructs to be tested, 96-well skirted PCR plates, and 96-well flat-bottom, black, fluorescent assay plates. […]

CCND1 = assay: In vitro transcription-translation (IVTT) assay, CCND1 reporter; conditions: HeLa S3 lysate, 2 hrs at 30° C.
Excerpt: as §1, §2, §3, §4, §5

MCL-1 = assay: In vitro transcription-translation (IVTT) assay, MCL-1 reporter; conditions: HeLa S3 lysate, sfGFP/mCherry ratio, 2 hrs at 30° C.
Excerpt: as §1, §2, §3, §4, §5

[1] = IVTT assay, MYC reporter, normalized sfGFP/mCherry ratio, half-log dilutions 30 μM-0.1 μM

SMILES	IC50 (MYC; [1]) [µM]	IC50 (CCND1; IVTT) [µM]	IC50 (MCL-1) [µM]	IC50 (CCND1; sfGFP/mCherry ratio) [µM]	IC50 (MYC; sfGFP/mCherry ratio) [µM]
COc1ccc(C[C@H]2NC[C@H](O)[C@H]2OC(=O)N[C@H](C)c2ccccc2)cc1 [V191970, (2R,3S,4S)-4-hydroxy-2-[(4-methoxyphenyl)methyl]pyrrolidin-3-yl N-[(1R)-1-phenylethyl]carbamate]	> 30	> 30	–	–	–
O=C(NCC[C@H]1CCOC1)O[C@@H]1[C@@H](O)CN[C@@H]1Cc1ccc(-c2cncs2)cc1 [V193643, (2R,3S,4S)-4-hydroxy-2-(4-(thiazol-5-yl)benzyl)pyrrolidin-3-yl (2-((S)-tetrahydrofuran-3-yl)ethyl)carbamate]	< 10	–	–	–	–
[H]/N=C(/N)c1cccc(CNC(=O)O[C@@H]2[C@@H](O)CN[C@@H]2Cc2ccc(OC)cc2)c1 [Cmpd V187989]	–	–	< 10	< 10	–
O=C(NCC[C@H]1C[C@H](O)C1)O[C@@H]1[C@@H](O)CN[C@@H]1Cc1ccc(-c2cncs2)cc1 [V193645, (2R,3S,4S)-4-hydroxy-2-(4-(thiazol-5-yl)benzyl)pyrrolidin-3-yl (2-((1r,3R)-3-hydroxycyclobutyl)ethyl)carbamate]	< 10	–	–	–	–
O=C(NCC[C@H]1CCCO1)O[C@@H]1[C@@H](O)CN[C@@H]1Cc1ccc(-c2cncs2)cc1 [V193641, (2R,3S,4S)-4-hydroxy-2-(4-(thiazol-5-yl)benzyl)pyrrolidin-3-yl (2-((R)-tetrahydrofuran-2-yl)ethyl)carbamate]	< 10	–	–	–	–
CC(C)CCNC(=O)O[C@@H]1[C@@H](O)CN[C@@H]1Cc1ccc(-c2cncs2)cc1 [V193648, (2R,3S,4S)-4-hydroxy-2-(4-(thiazol-5-yl)benzyl)pyrrolidin-3-yl isopentylcarbamate]	< 10	–	–	–	–
COc1ccc(C[C@H]2NC[C@H](O)[C@H]2OC(=O)NCC2CC(F)(F)C2)cc1 [V187862, (2R,3S,4S)-4-hydroxy-2-[(4-methoxyphenyl)methyl]pyrrolidin-3-yl N-[(3,3-difluorocyclobutyl)methyl]carbamate]	–	–	< 10	< 10	< 10
COc1ccc(C[C@H]2NC[C@H](O)[C@H]2OC(=O)NC[C@@H]2CNC[C@@H]2O)cc1 [Cmpd V188116]	–	–	10 to 20	> 30	20 to 30
O=C(NCC[C@@H]1CCOC1)O[C@@H]1[C@@H](O)CN[C@@H]1Cc1ccc(-c2cncs2)cc1 [V193642, (2R,3S,4S)-4-hydroxy-2-(4-(thiazol-5-yl)benzyl)pyrrolidin-3-yl (2-((R)-tetrahydrofuran-3-yl)ethyl)carbamate]	< 10	–	–	–	–
COc1ccc(C[C@H]2NC[C@H](O)[C@H]2OC(=O)NC[C@H]2CNC[C@H]2O)cc1 [V188115, (2R,3S,4S)-4-hydroxy-2-[(4-methoxyphenyl)methyl]pyrrolidin-3-yl N-{[(3R,4S)-4-hydroxypyrrolidin-3-yl]methyl}carbamate]	–	–	10 to 20	> 30	> 30
COc1ccc(C[C@H]2NC[C@H](O)[C@H]2OC(=O)NCc2cc(C(F)(F)F)[nH]n2)cc1 [Cmpd V187861]	–	–	< 10	20 to 30	> 30
O=C(NCCc1ccncc1)O[C@@H]1[C@@H](O)CN[C@@H]1Cc1ccc(-c2cn(-c3ccc(Cl)cc3)nn2)cc1 [V187950, (2R,3S,4S)-2-({4-[1-(4-chlorophenyl)-1,2,3-triazol-4-yl]phenyl}methyl)-4-hydroxypyrrolidin-3-yl N-[2-(pyridin-4-yl)ethyl]carbamate]	–	–	< 10	< 10	10 to 20
COc1ccc(C[C@H]2NC[C@H](O)[C@H]2OC(=O)NCCn2cnc3ccccc32)cc1 [V188090, (2R,3S,4S)-4-hydroxy-2-[(4-methoxyphenyl)methyl]pyrrolidin-3-yl N-[2-(1,3-benzodiazol-1-yl)ethyl]carbamate]	–	–	–	> 30	> 30
COc1ccc(C[C@H]2NC[C@H](O)[C@H]2NC(=O)OCc2ccccc2)cc1 [Cmpd V187864]	–	–	> 30	> 30	> 30
COc1ccc(C[C@H]2NC[C@H](O)[C@H]2OC(=O)NCCN[C@@H]2CCNC2)cc1 [V188073, (2R,3S,4S)-4-hydroxy-2-[(4-methoxyphenyl)methyl]pyrrolidin-3-yl N-{2-[(3R)-pyrrolidin-3-ylamino]ethyl}carbamate]	–	–	10 to 20	20 to 30	10 to 20
O=C(NCCc1ccncc1)O[C@@H]1[C@@H](O)CN[C@@H]1Cc1ccc(-c2cn(Cc3cn[nH]c3)nn2)cc1 [V187948, (2R,3S,4S)-4-hydroxy-2-({4-[1-(1H-pyrazol-4-ylmethyl)-1,2,3-triazol-4-yl]phenyl}methyl)pyrrolidin-3-yl N-[2-(pyridin-4-yl)ethyl]carbamate]	–	–	< 10	< 10	< 10
COc1ccc(C[C@H]2NC[C@H](O)[C@H]2OC(=O)NCCn2ccnc2C)cc1 [V188087, (2R,3S,4S)-4-hydroxy-2-[(4-methoxyphenyl)methyl]pyrrolidin-3-yl N-[2-(2-methylimidazol-1-yl)ethyl]carbamate]	–	–	< 10	20 to 30	10 to 20
O=C(NCCc1cnoc1)O[C@@H]1[C@@H](O)CN[C@@H]1Cc1ccc(-c2cncs2)cc1 [V193647, (2R,3S,4S)-4-hydroxy-2-(4-(thiazol-5-yl)benzyl)pyrrolidin-3-yl (2-(isoxazol-4-yl)ethyl)carbamate]	< 10	–	–	–	–
O=C(NCCc1cn[nH]c1)O[C@@H]1[C@@H](O)CN[C@@H]1Cc1ccc(-c2cncs2)cc1 [V193646, (2R,3S,4S)-4-hydroxy-2-(4-(thiazol-5-yl)benzyl)pyrrolidin-3-yl (2-(1H-pyrazol-4-yl)ethyl)carbamate]	< 10	–	–	–	–
COc1ccc(C[C@H]2NC[C@H](O)[C@H]2OC(=O)NCCC2CNC2)cc1 [V187600, (2R,3S,4S)-4-hydroxy-2-[(4-methoxyphenyl)methyl]pyrrolidin-3-yl N-[2-(azetidin-3-yl)ethyl]carbamate]	–	–	< 10	–	10 to 20
COc1ccc(C[C@H]2NC[C@H](O)[C@H]2OC(=O)NC[C@@H]2CCN(C)C2)cc1 [V188109, (2R,3S,4S)-4-hydroxy-2-[(4-methoxyphenyl)methyl]pyrrolidin-3-yl N-{[(3S)-1-methylpyrrolidin-3-yl]methyl}carbamate]	–	–	–	> 30	10 to 20
O=C(NCC[C@H]1C[C@@H](O)C1)O[C@@H]1[C@@H](O)CN[C@@H]1Cc1ccc(-c2cncs2)cc1 [V193644, (2R,3S,4S)-4-hydroxy-2-(4-(thiazol-5-yl)benzyl)pyrrolidin-3-yl (2-((1s,3S)-3-hydroxycyclobutyl)ethyl)carbamate]	< 10	–	–	–	–
COc1ccc(C[C@H]2NC[C@H](O)[C@H]2OC(=O)NC[C@@H]2CNC[C@H]2O)cc1 [V188093, (2R,3S,4S)-4-hydroxy-2-[(4-methoxyphenyl)methyl]pyrrolidin-3-yl N-{[(3S,4S)-4-hydroxypyrrolidin-3-yl]methyl}carbamate]	–	–	–	> 30	20 to 30
CNC(=O)O[C@@H]1[C@@H](O)CN[C@@H]1Cc1ccc(-c2cn(-c3cc4ccc(O)cc4oc3=O)nn2)cc1 [V193432, (2R,3S,4S)-4-hydroxy-2-(4-(1-(7-hydroxy-2-oxo-2H-chromen-3-yl)-1H-1,2,3-triazol-4-yl)benzyl)pyrrolidin-3-yl methylcarbamate]	< 10	–	–	–	–
COc1ccc(C[C@H]2NC[C@H](O)[C@H]2OC(=O)NCC2CNC2)cc1 [V187599, (2R,3S,4S)-4-hydroxy-2-[(4-methoxyphenyl)methyl]pyrrolidin-3-yl N-(azetidin-3-ylmethyl)carbamate]	–	–	10 to 20	–	> 30

From patent US20250129021A1, “SMALL MOLECULE PROTEIN SYNTHESIS MODULATORS” (Interdict Bio, Inc., priority 2023, published 2025)
